Measured values: PubChem BioAssay (NCI)
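Dose response: 5 concentrations. Exposure: 48 h. Format: 96-well plates. Endpoint: linear interpolation; highest concentration if not reached. The concentration for full growth arrest is given as TGI.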

Assays:
Assay in all cases: inhibition of tumour cell growth, NCI panel, 48 h
[1] = test system: HCT-116 colon
[2] = test system: NCI-H23 lung
[3] = test system: T-47D breast
[4] = test system: NCI-H226 lung
[5] = test system: A498 renal
[6] = test system: BT-549 breast
[7] = test system: MALME-3M melanoma
[8] = test system: M14 melanoma
[9] = test system: A549 NSCLC
[10] = test system: UACC-62 melanoma
[11] = test system: MDA-MB-231 breast
[12] = test system: SW-620 colon
[13] = test system: HCT-15 colon
[14] = test system: MCF7 breast
[15] = test system: KM12 colon
[16] = test system: SR leukemia
[17] = test system: SK-OV-3 ovarian
[18] = test system: HOP-62 NSCLC
[19] = test system: U251 CNS
[20] = test system: CCRF-CEM leukemia
[21] = test system: UO-31 renal
[22] = test system: K-562 leukemia
[23] = test system: SF-268 CNS
[24] = test system: MDA-MB-435
[25] = test system: MDA-N
[26] = test system: LOX IMVI melanoma
[27] = test system: OVCAR-5 ovarian
[28] = test system: SK-MEL-5 melanoma
[29] = test system: 786-0 renal
[30] = test system: RPMI-8226 leukemia
[31] = test system: COLO 205 colon
[32] = test system: DU-145 prostate
[33] = test system: PC-3 prostate
[34] = test system: OVCAR-8 ovarian
[35] = test system: HOP-92 NSCLC
[36] = test system: CAKI-1 renal
[37] = test system: SK-MEL-2 melanoma
[38] = test system: NCI/ADR-RES ovarian
[39] = test system: HL-60(TB) leukemia
[40] = test system: EKVX NSCLC
[41] = test system: MOLT-4 leukemia
[42] = test system: HT29 colon
[43] = test system: TK-10 renal
[44] = test system: NCI-H522 lung
[45] = test system: SF-295 CNS
[46] = test system: IGROV1 ovarian
[47] = test system: SF-539 CNS
[48] = test system: UACC-257 melanoma
[49] = test system: SN12C renal
[50] = test system: OVCAR-3 ovarian
[51] = test system: HCC-2998 colon
[52] = test system: SNB-19 CNS
[53] = test system: RXF 393 renal
[54] = test system: NCI-H460 lung
[55] = test system: HS 578T breast
[56] = test system: SNB-75 CNS
[57] = test system: ACHN renal
[58] = test system: OVCAR-4 ovarian
[59] = test system: SK-MEL-28 melanoma

`Nc1ccc2c(c1)C1Oc3ccccc3CC1CO2` (configuration not stated) was tested, and the TGI [1] was greater than 100 µM, the TGI [2] was greater than 100 µM and the TGI [3] was greater than 100 µM. It also gave a TGI [4] greater than 100 µM, a TGI [5] greater than 100 µM and a TGI [6] greater than 100 µM. For the same molecule, the TGI [7] was greater than 100 µM, the TGI [8] was greater than 100 µM and the TGI [9] was greater than 100 µM. It also gave a TGI [10] greater than 100 µM, a TGI [11] greater than 100 µM and a TGI [12] greater than 100 µM. It also gave a TGI [13] of 35.6 µM, a TGI [14] greater than 100 µM and a TGI [15] greater than 100 µM. For the same molecule, the TGI [16] was greater than 100 µM, the TGI [17] was greater than 100 µM and the TGI [18] was greater than 100 µM. For the same molecule, the TGI [19] was greater than 100 µM, the TGI [20] was greater than 100 µM and the TGI [21] was greater than 100 µM. The TGI [22] was greater than 100 µM, the TGI [23] was greater than 100 µM and the TGI [24] was greater than 100 µM. For the same molecule, the TGI [25] was greater than 100 µM, the TGI [26] was greater than 100 µM and the TGI [27] was greater than 100 µM. For the same molecule, the TGI [28] was greater than 100 µM, the TGI [29] was greater than 100 µM and the TGI [30] was greater than 100 µM. For the same molecule, the TGI [31] was greater than 100 µM, the TGI [32] was greater than 100 µM and the TGI [33] was greater than 100 µM. For the same molecule, the TGI [34] was greater than 100 µM, the TGI [35] was greater than 100 µM and the TGI [36] was greater than 100 µM. It also gave a TGI [37] greater than 100 µM, a TGI [38] greater than 100 µM and a TGI [39] greater than 100 µM. The TGI [40] was greater than 100 µM, the TGI [41] was greater than 100 µM and the TGI [42] was greater than 100 µM. For the same molecule, the TGI [43] was greater than 100 µM, the TGI [44] was greater than 100 µM and the TGI [45] was greater than 100 µM. It also gave a TGI [46] greater than 100 µM, a TGI [47] greater than 100 µM and a TGI [48] greater than 100 µM. For the same molecule, the TGI [49] was greater than 100 µM, the TGI [50] was greater than 100 µM and the TGI [51] was greater than 100 µM.

In the case of `CSc1nc2ccccc2c(=O)n1/N=C1\C(=O)N(CN2CCOCC2)c2ccc(Cl)cc21`, the TGI [1] is reported as greater than 100 µM, the TGI [2] is reported as greater than 100 µM and the TGI [3] is reported as greater than 100 µM. The TGI [4] was greater than 100 µM, the TGI [5] was greater than 100 µM and the TGI [6] was 93.8 µM. For the same molecule, the TGI [7] was greater than 100 µM, the TGI [8] was greater than 100 µM and the TGI [9] was greater than 100 µM. For the same molecule, the TGI [52] was greater than 100 µM, the TGI [10] was 61.3 µM and the TGI [11] was greater than 100 µM. The TGI [12] was greater than 100 µM, the TGI [13] was greater than 100 µM and the TGI [53] was 44.8 µM. It also gave a TGI [54] of 43.4 µM, a TGI [55] greater than 100 µM and a TGI [14] greater than 100 µM. The TGI [56] was greater than 100 µM, the TGI [15] was greater than 100 µM and the TGI [17] was greater than 100 µM. For the same molecule, the TGI [18] was greater than 100 µM, the TGI [19] was greater than 100 µM and the TGI [20] was greater than 100 µM. It also gave a TGI [21] greater than 100 µM, a TGI [22] greater than 100 µM and a TGI [23] greater than 100 µM. For the same molecule, the TGI [24] was greater than 100 µM, the TGI [25] was greater than 100 µM and the TGI [26] was 33.3 µM. It also gave a TGI [27] greater than 100 µM, a TGI [28] greater than 100 µM and a TGI [29] greater than 100 µM. It also gave a TGI [31] of 36.6 µM, a TGI [32] of 63.6 µM and a TGI [33] greater than 100 µM. The TGI [57] was greater than 100 µM, the TGI [34] was greater than 100 µM and the TGI [35] was greater than 100 µM. For the same molecule, the TGI [36] was greater than 100 µM, the TGI [37] was 51.6 µM and the TGI [38] was greater than 100 µM. The TGI [39] was 64 µM, the TGI [40] was 64.8 µM and the TGI [41] was 42.8 µM. The TGI [42] was greater than 100 µM, the TGI [43] was 71.4 µM and the TGI [44] was 89.8 µM. For the same molecule, the TGI [45] was greater than 100 µM, the TGI [46] was greater than 100 µM and the TGI [47] was 75.6 µM. It also gave a TGI [58] greater than 100 µM, a TGI [48] of 51.2 µM and a TGI [49] greater than 100 µM. The TGI [50] was greater than 100 µM and the TGI [59] was greater than 100 µM.
